The results in this text go back to US5602099A, “δ opioid receptor antagonists” (Aktiebolaget Astra, priority 1993, dated 1997).

Structures are written as SMILES. Like-named read-outs stand apart in the source and are kept apart here. Peptide text beside a SMILES is read from it.

The test has as its target T1, δ opioid receptors (Mus musculus, UniProt P32300).
T1 construct: Bioassays Using Isolated Organ Preparations; from tissue; host or cells: mouse vas deferens (isolated organ)
Kind of test: Mouse vas deferens (MVD) bioassay, antagonism of electrically evoked contraction inhibition by δ-selective agonists. Type of test: tissue-based. The conditions noted are these: MVD assay, means of 3-8 determinations. From the text: a) Biosassys based on inhibition of electrically evoked contractions of the mouse vas deferens (MVD) and of the guinea pig ileum (GPI). In the GPI assay the opioid effect is primarily mediated by μ opioid receptors, whereas in the MVD assay the inhibition of the contractions is mostly due to interaction with δ opioid receptors.
The GPI and MVD bioassays were carded out as reported in P. W. Schiller et al., Biochem. Biophys. Res. Commun 85, 1332-1338 (1978) and J. Di Maio et al., J. Med. Chem. 25, 1432-1438 (1982). A log dose-response curve was determind with [Leu^5 ]enkephalin as standard for each ileum and vas preparation, and IC50 values of the compounds being tested were normalized according to A. A Waterfield et al., Eur. J. Pharmacol. 58, 11-18 (1979). […] These determinations were made with the MVD assay, using three different δ-selective agonists ([Leu^5 ] enkephalin, DPDPE and [D-Ala^2 ]deltorphin I].

Setting [1] is: Ke (nM) against [D-Ala2]deltorphin I, δ agonist [D-Ala2]deltorphin I.
[2] abbreviates: Ke (nM) against [Leu5]Enkephalin, δ agonist [Leu5]enkephalin.
The mark [3] stands for this setting: δ agonist DPDPE, read-out: Ke (nM) against DPDPE.
The mark [4] stands for this setting: δ agonist [D-Ala2]deltorphin I, read-out: Ke (nM) against [D-Ala2]deltorphin I.
Where [5] appears, read: δ agonist [Leu5]enkephalin, read-out: Ke (nM) against [Leu5]Enkephalin.
Setting [6] is: Ke (nM) against DPDPE, δ agonist DPDPE.

T1 sequence (P32300 whole entry): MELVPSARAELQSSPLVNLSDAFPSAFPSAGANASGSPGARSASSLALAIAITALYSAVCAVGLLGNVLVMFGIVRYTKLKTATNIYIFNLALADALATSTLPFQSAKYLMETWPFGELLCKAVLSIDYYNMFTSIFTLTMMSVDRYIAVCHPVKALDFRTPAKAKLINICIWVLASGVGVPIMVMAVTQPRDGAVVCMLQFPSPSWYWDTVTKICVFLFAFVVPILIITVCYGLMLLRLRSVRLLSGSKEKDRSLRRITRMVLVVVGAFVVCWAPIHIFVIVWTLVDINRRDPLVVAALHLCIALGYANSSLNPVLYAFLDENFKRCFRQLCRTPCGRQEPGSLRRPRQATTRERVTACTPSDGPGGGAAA

For `Cc1cc(O)cc(C)c1C[C@H](N)C(=O)N1Cc2ccccc2C[C@H]1C(=O)N[C@@H](Cc1ccccc1)C(=O)N[C@@H](Cc1ccccc1)C(N)=O` [HDmtTicPhePheNH2, H-Dmt-Tic-Phe-Phe-NH2] (HELM PEPTIDE1{[Cc1cc(O)cc(C)c1C[C@H](N)C(=O)[*:2]].[Tic].F.F.[am]}$$$$V2.0), the Kb reads like this: under setting [1], 0.26 nM; under setting [2], 0.221 nM; under setting [3], 0.209 nM.

As to `Cc1cc(O)cc(C)c1C[C@H](N)C(=O)N1Cc2ccccc2C[C@H]1C(=O)N[C@@H](Cc1ccccc1)C(=O)N[C@@H](Cc1ccccc1)C(=O)O` [HDmtTicPhePheOH, H-Dmt-Tic-Phe-Phe-OH] (HELM PEPTIDE1{[Cc1cc(O)cc(C)c1C[C@H](N)C(=O)[*:2]].[Tic].F.F}$$$$V2.0), the Kb by setting is: under setting [3], 0.196 nM; under setting [4], 0.13 nM; under setting [5], 0.169 nM.

`N[C@@H](Cc1ccc(O)c(Br)c1)C(=O)N1Cc2ccccc2C[C@H]1C(=O)N[C@@H](Cc1ccccc1)C(=O)N[C@@H](Cc1ccccc1)C(=O)O` [HTyr(3-Br)TicPhePheOH, H-Tyr(3-Br)-Tic-Phe-Phe-OH] (HELM PEPTIDE1{[N[C@@H](Cc1ccc(O)c(Br)c1)C(=O)[*:2]].[Tic].F.F}$$$$V2.0): the Kb came to 31.3 nM under setting [6], 23.9 nM under setting [1] and 18.2 nM under setting [2].

Regarding `N[C@@H](Cc1ccc(O)c(Cl)c1)C(=O)N1Cc2ccccc2C[C@H]1C(=O)N[C@@H](Cc1ccccc1)C(=O)N[C@@H](Cc1ccccc1)C(=O)O` [HTyr(3-Cl)TicPhePheOH, H-Tyr(3-Cl)-Tic-Phe-Phe-OH] (HELM PEPTIDE1{[N[C@@H](Cc1ccc(O)c(Cl)c1)C(=O)[*:2]].[Tic].F.F}$$$$V2.0), the Kb worked out at 20.4 nM under setting [6], 19.9 nM under setting [1] and 18 nM under setting [2].

As to `N[C@@H](Cc1ccc(O)c(F)c1)C(=O)N1Cc2ccccc2C[C@H]1C(=O)N[C@@H](Cc1ccccc1)C(=O)N[C@@H](Cc1ccccc1)C(=O)O` [HTyr(3-F)TicPhePheOH, H-Tyr(3-F)-Tic-Phe-Phe-OH] (HELM PEPTIDE1{[N[C@@H](Cc1ccc(O)c(F)c1)C(=O)[*:2]].[Tic].F.F}$$$$V2.0), the Kb is, setting by setting: under setting [6], 13 nM; under setting [1], 8.73 nM; under setting [2], 5.88 nM.

As for `N[C@@H](Cc1ccc(O)cc1)C(=O)N1Cc2ccccc2C[C@H]1CN[C@@H](CCc1ccccc1)C(=O)N[C@@H](Cc1ccccc1)C(=O)O` [HTyrTic.psi.[CH2NH]HfePheOH, H-Tyr-Tic-.PSI.[CH2 --NH]Hfe-Phe-OH], the Kb under setting [6] is 2.64 nM, the Kb under setting [1] was 1.9 nM and the Kb under setting [2] is 2.22 nM.

In the case of `N[C@@H](Cc1ccc(O)cc1)C(=O)N1Cc2ccccc2C[C@H]1C(=O)NC1(C(=O)N[C@@H](Cc2ccccc2)C(=O)O)CCc2ccccc2C1` (stereo partly drawn) [HTyrTicAtcPheOH, H-Tyr-Tic-Atc-Phe-OH] (HELM PEPTIDE1{Y.[Tic].[O=C(C1(N[*:1])CCc2ccccc2C1)[*:2]].F}$$$$V2.0), the Kb was 1.85 nM under setting [6], 0.927 nM under setting [1] and 1.63 nM under setting [2].

For the compound `N[C@@H](Cc1ccc(O)cc1)C(=O)N1Cc2ccccc2C[C@H]1C(=O)N[C@@H](Cc1ccccc1)C(=O)N[C@@H](Cc1ccc([N+](=O)[O-])cc1)C(=O)O` [HTyrTicPhePhe(pNO2)OH, H-Tyr-Tic-Phe-Phe(pNO2)-OH] (HELM PEPTIDE1{Y.[Tic].F.[O=C(O)[C@H](Cc1ccc([N+](=O)[O-])cc1)N[*:1]]}$$$$V2.0), the Kb worked out at 3.3 nM under setting [6], 2.79 nM under setting [1] and 3.62 nM under setting [2].

Turning to `CCCC[C@H](NC(=O)[C@H](CC(C)C)NC(=O)[C@H](Cc1ccccc1)NC(=O)[C@H](Cc1ccccc1)NC(=O)[C@@H]1Cc2ccccc2CN1C(=O)[C@@H](N)Cc1ccc(O)cc1)C(=O)N[C@@H](CC(=O)O)C(N)=O` [HTyrTicPhePheLeuNleAspNH2, H-Tyr-Tic-Phe-Phe-Leu-Nle-Asp-NH2] (HELM PEPTIDE1{Y.[Tic].F.F.L.[Nle].D.[am]}$$$$V2.0), the Kb under setting [6] turned out to be 10.4 nM, the Kb under setting [1] stood at 10.8 nM and the Kb under setting [2] is 21.4 nM.

As to `N[C@@H](Cc1ccc(O)cc1)C(=O)N1Cc2ccccc2C[C@H]1C(=O)N[C@@H](Cc1ccccc1)C(=O)N[C@@H](Cc1ccccc1)C(=O)O` [HTyrTicPhePheOH, H-Tyr-Tic-Phe-Phe-OH] (HELM PEPTIDE1{Y.[Tic].F.F}$$$$V2.0), the Kb was found to be 4.8 nM under setting [3], 2.96 nM under setting [4] and 5.86 nM under setting [5].

For `N[C@@H](Cc1ccc(O)cc1)C(=O)N1Cc2ccccc2C[C@H]1C(=O)N[C@@H](Cc1c[nH]c2ccccc12)C(=O)O` [HTyrTicTrpOH] (HELM PEPTIDE1{Y.[Tic].W}$$$$V2.0), the Kb by setting is: under setting [6], 6.23 nM; under setting [1], 5.36 nM; under setting [2], 10.6 nM.

Consider `N[C@@H](Cc1ccc(O)cc1)C(=O)N1Cc2ccccc2C[C@H]1C(=O)N[C@@H](Cc1c[nH]c2ccccc12)C(=O)N[C@@H](Cc1ccc([N+](=O)[O-])cc1)C(=O)O` [HTyrTicTrpPhe(pNO2)OH, H-Tyr-Tic-Trp-Phe(pNO2)-OH] (HELM PEPTIDE1{Y.[Tic].W.[O=C(O)[C@H](Cc1ccc([N+](=O)[O-])cc1)N[*:1]]}$$$$V2.0), for which the Kb reads like this: under setting [6], 4.4 nM; under setting [1], 2.27 nM; under setting [2], 1.83 nM.

Consider `NC(=O)[C@H](CO)NC(=O)[C@@H]1CCCN1C(=O)[C@H](Cc1ccc(O)cc1)NC(=O)[C@H](Cc1ccc([N+](=O)[O-])cc1)NC(=O)[C@H](Cc1c[nH]c2ccccc12)NC(=O)[C@@H]1Cc2ccccc2CN1C(=O)[C@@H](N)Cc1ccc(O)cc1` [HTyrTicTrpPhe(pNO2)TyrProSerNH2, H-Tyr-Tic-Trp-Phe (pNO2) -Tyr-Pro-Ser-NH2] (HELM PEPTIDE1{Y.[Tic].W.[O=C([C@H](Cc1ccc([N+](=O)[O-])cc1)N[*:1])[*:2]].Y.P.S.[am]}$$$$V2.0), for which the Kb is, setting by setting: under setting [6], 2.48 nM; under setting [1], 3.91 nM; under setting [2], 3.68 nM.

For the compound `NC(=O)[C@H](CO)NC(=O)[C@@H]1CCCN1C(=O)[C@H](Cc1ccc(O)cc1)NC(=O)[C@H](Cc1ccccc1)NC(=O)[C@H](Cc1c[nH]c2ccccc12)NC(=O)[C@@H]1Cc2ccccc2CN1C(=O)[C@@H](N)Cc1ccc(O)cc1` [HTyrTicTrpPheTyrProSerNH2, H-Tyr-Tic-Trp-Phe-Tyr-Pro-Ser-NH2] (HELM PEPTIDE1{Y.[Tic].W.F.Y.P.S.[am]}$$$$V2.0), the Kb is, setting by setting: under setting [6], 3.65 nM; under setting [2], 4.2 nM.

Consider `CN[C@@H](Cc1ccc(O)cc1)C(=O)N1Cc2ccccc2C[C@H]1CN[C@@H](CCc1ccccc1)C(=O)N[C@@H](Cc1ccccc1)C(=O)O` [Tyr(NMe)-Tic.psi.[CH2NH]HfePheOH, Tyr(NMe)-Tic.PSI.[CH2 --NH]Hfe-Phe-OH], for which the Kb reads like this: under setting [6], 0.902 nM; under setting [1], 0.418 nM; under setting [2], 0.78 nM.

With `O=C(O)[C@H](Cc1ccccc1)NC(=O)[C@H](Cc1ccccc1)NC(=O)[C@@H]1Cc2ccccc2CN1C(=O)[C@H](Cc1ccc(O)cc1)NCC1CC1` [Tyr(N^α Cpm)-TicPhePheOH, Tyr(N^α Cpm)-Tic-Phe-Phe-OH], the Kb runs as follows: under setting [6], 28.2 nM; under setting [1], 32.5 nM; under setting [2], 29.6 nM.

For `CCN(CC)[C@@H](Cc1ccc(O)cc1)C(=O)N1Cc2ccccc2C[C@H]1C(=O)N[C@@H](Cc1ccccc1)C(=O)N[C@@H](Cc1ccccc1)C(=O)O` [Tyr(N^α Et2)-TicPhePheOH, Tyr(N^α Et2)-Tic-Phe-Phe-OH], the Kb under setting [6] turned out to be 0.893 nM, the Kb under setting [1] is 2.3 nM and the Kb under setting [2] amounted to 3.39 nM.
